Values of other authors, collected in publication PMC4010828 (mBio, 2014).

Tested on: sensitive E. coli cells

In the case of “microcin C (MRTGNAN; C-terminal adenylate, aminopropyl phosphoramidate) [McC]”, the “Concentration that inhibits the growth of sensitive E. coli cells” value is given as “low micromolar concentrations”.
